Test results: patent publication US20230099858A1, “PYRIDOPYRIMIDINE DERIVATIVES AS KRAS INHIBITORS” (BETA PHARMA, INC., priority 2020, published 2023)
Counter-ions that a name gives are not always drawn. Like-named read-outs stand apart in the source and are kept apart here.

Target: T1, KRAS G12C (Homo sapiens, UniProt P01116, G12C)
T1 construct: aa 2-169, expressed in E. coli; His-tag (TEV cleavable) (N); purchased Reaction Biology Corporation (RBC); host or cells: E. coli
Assay: KRAS G12C/SOS1 Nucleotide Exchange Assay (SOS1-mediated Bodipy-GDP to GTP exchange)
Format: biochemical
Conditions: for IC50: substrate Bodipy-GDP/Kras G12C, 30 min pre-incubation at RT
Experimental: Reaction Buffer: 40 mM HEPES 7.4, 10 mM MgCl2, 1 mM DTT 0.002% Triton X100, 0.1% DMSO (final).
In addition, the final assay volume was 15 μL.
Reaction Procedure: • 1. Deliver 10 uL of 1.5× KRAS solution in freshly prepared reaction buffer to reaction wells. • 2. Deliver compounds in 100% DMSO into buffer using acoustic technology (Echo550; nanoliter range). • 3. Incubate compounds with Kras for 30 minutes at room temperature. • 4. Prepare 3× (SOS1+GTP) solution in reaction buffer. • 5. Deliver 5 μL of SOS1+GTP solution into reactions wells (deliver GTP only to column 1 for no SOS1 control). • 6.
Data Analysis: The fluorescence data was normalized using the equation below and fitted to “one phase exponential decay” equation using GraphPad prism software. The plateau was fixed to zero (use for non-covalent inhibitors) and rate ×1000 was used to calculate the IC50 values. Alternatively, the plateau was unconstrained (for covalent inhibitors) and the span value was used to calculate the IC50 values.
where Yraw is defined as fluorescence at time t, Ao is the average initial fluorescence with no SOS1, and M is the minimum fluorescence at the end of the reaction at the maximum SOS1.
The background subtracted signals (no SOS1 protein wells were used as background) were converted to % activity relative to DMSO controls. Data was analyzed using GraphPad Prism 4 with “sigmoidal dose-response (variable slope)”; 4 parameters with Hill Slope. The constraints were bottom (constant equal to 0) and top (must be less than 1).

[1] = plateau fixed to zero, rate x1000 used, read-out: IC50, Analysis Method: Rate Constant, KRAS G12C

T1 sequence (P01116 2-169 G12C): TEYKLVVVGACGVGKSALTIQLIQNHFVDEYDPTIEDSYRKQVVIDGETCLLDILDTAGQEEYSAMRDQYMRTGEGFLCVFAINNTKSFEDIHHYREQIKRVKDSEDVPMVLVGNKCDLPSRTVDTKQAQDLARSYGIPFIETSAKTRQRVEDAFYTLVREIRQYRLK

## C=CC(=O)N1CCN(c2nc(OCC3CCCN3C)nc3nc(-c4cccc5cccc(Cl)c45)ccc23)C[C@H]1C (stereo partly drawn) [Example 1, 1-[(2R)-4-[7-(8-Chloronaphthalen-1-yl)-2-[(1-methylpyrrolidin-2-yl)methoxy]pyrido[2,3-d]pyrimidin-4-yl]-2-methylpiperazin-1-yl]prop-2-en-1-one]
Span analysis, no curve fit, highest concentration tested 10 μM, read-out: inhibition, printed in place of an IC50, Analysis Method: Span, KRAS G12C
  inhibition at 10 µM: < 65%
[1]
  IC50: 58 nM

## C=CC(=O)N1CCN(c2nc(OC[C@@H]3CCCN3C)nc3nc(-c4cccc5cccc(Cl)c45)ccc23)C[C@@H]1CC#N [Example 2, 2-((S)-1-Acryloyl-4-(7-(8-chloronaphthalen-1-yl)-2-(((S)-1-methylpyrrolidin-2-yl)methoxy)pyrido[2,3-d]pyrimidin-4-yl)piperazin-2-yl)acetonitrile trifluoroacetate (1:1)]
[1]
  IC50: 8 nM
Plateau unconstrained, span value used (for covalent inhibitors), read-out: IC50, Analysis Method: Span, KRAS G12C
  IC50: 25 nM
